Measured values as given in article PMC9927415, “Tyrosine Kinase Inhibitors Display Potent Activity against Cryptosporidium parvum” (Microbiology Spectrum, 2022).

Legend:
Experiment in all cases: KINOMEscan competitive binding, whole panel
panel of 203 kinases [1] = target: T1, panel of 203 kinases (Homo sapiens, UniProt P06239); conditions: 10 µM, n=1; kinase LCK; read-out: Percent inhibition LCK
T1 construct: purchased DiscoverX (KINOMEscan)
Procedure, shortened: (§1)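 Kinases expressed as T7 bacteriophage fusions; test compound competes with an immobilized ATP-site probe ligand. Kinase still bound to the solid support was quantified and expressed as percentage inhibition.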

panel of 203 kinases [2] = target: T2, panel of 203 kinases (Homo sapiens, UniProt P14616); conditions: 10 µM, n=1; kinase INSRR; read-out: Percent inhibition INSRR
T2 construct: purchased DiscoverX (KINOMEscan)
Procedure, shortened: as §1

panel of 203 kinases [3] = target: T3, panel of 203 kinases (Homo sapiens, UniProt P16591); conditions: 10 µM, n=1; kinase FER; read-out: Percent inhibition FER
T3 construct: purchased DiscoverX (KINOMEscan)
Procedure, shortened: as §1

panel of 203 kinases [4] = target: T4, panel of 203 kinases (Homo sapiens, UniProt P22607); conditions: 10 µM, n=1; kinase FGFR3; read-out: Percent inhibition FGFR3
T4 construct: purchased DiscoverX (KINOMEscan)
Procedure, shortened: as §1

panel of 203 kinases [5] = target: T5, panel of 203 kinases (Homo sapiens, UniProt P29317); conditions: 10 µM, n=1; kinase EPHA2; read-out: Percent inhibition EPHA2
T5 construct: purchased DiscoverX (KINOMEscan)
Procedure, shortened: as §1

panel of 203 kinases [6] = target: T6, panel of 203 kinases (Homo sapiens, UniProt P31749); conditions: 10 µM, n=1; kinase AKT1; read-out: Percent inhibition AKT1
T6 construct: purchased DiscoverX (KINOMEscan)
Procedure, shortened: as §1

panel of 203 kinases [7] = target: T7, panel of 203 kinases (Homo sapiens, UniProt P35916); conditions: 10 µM, n=1; kinase FLT4; read-out: Percent inhibition FLT4
T7 construct: purchased DiscoverX (KINOMEscan)
Procedure, shortened: as §1

panel of 203 kinases [8] = target: T8, panel of 203 kinases (Homo sapiens, UniProt P37023); conditions: 10 µM, n=1; kinase ACVRL1; read-out: Percent inhibition ACVRL1
T8 construct: purchased DiscoverX (KINOMEscan)
Procedure, shortened: as §1

panel of 203 kinases [9] = target: T9, panel of 203 kinases (Homo sapiens, UniProt P45983); conditions: 10 µM, n=1; kinase JNK1; read-out: Percent inhibition JNK1
T9 construct: purchased DiscoverX (KINOMEscan)
Procedure, shortened: as §1

panel of 203 kinases [10] = target: T10, panel of 203 kinases (Homo sapiens, UniProt P51451); conditions: 10 µM, n=1; kinase BLK; read-out: Percent inhibition BLK
T10 construct: purchased DiscoverX (KINOMEscan)
Procedure, shortened: as §1

panel of 203 kinases [11] = target: T11, panel of 203 kinases (Homo sapiens, UniProt P53667); conditions: 10 µM, n=1; kinase LIMK1; read-out: Percent inhibition LIMK1
T11 construct: purchased DiscoverX (KINOMEscan)
Procedure, shortened: as §1

panel of 203 kinases [12] = target: T12, panel of 203 kinases (Homo sapiens, UniProt P54764); conditions: 10 µM, n=1; kinase EPHA4; read-out: Percent inhibition EPHA4
T12 construct: purchased DiscoverX (KINOMEscan)
Procedure, shortened: as §1

panel of 203 kinases [13] = target: T13, panel of 203 kinases (Homo sapiens, UniProt Q09013); conditions: 10 µM, n=1; kinase DMPK; read-out: Percent inhibition DMPK
T13 construct: purchased DiscoverX (KINOMEscan)
T13 sequence (Q09013 1-629): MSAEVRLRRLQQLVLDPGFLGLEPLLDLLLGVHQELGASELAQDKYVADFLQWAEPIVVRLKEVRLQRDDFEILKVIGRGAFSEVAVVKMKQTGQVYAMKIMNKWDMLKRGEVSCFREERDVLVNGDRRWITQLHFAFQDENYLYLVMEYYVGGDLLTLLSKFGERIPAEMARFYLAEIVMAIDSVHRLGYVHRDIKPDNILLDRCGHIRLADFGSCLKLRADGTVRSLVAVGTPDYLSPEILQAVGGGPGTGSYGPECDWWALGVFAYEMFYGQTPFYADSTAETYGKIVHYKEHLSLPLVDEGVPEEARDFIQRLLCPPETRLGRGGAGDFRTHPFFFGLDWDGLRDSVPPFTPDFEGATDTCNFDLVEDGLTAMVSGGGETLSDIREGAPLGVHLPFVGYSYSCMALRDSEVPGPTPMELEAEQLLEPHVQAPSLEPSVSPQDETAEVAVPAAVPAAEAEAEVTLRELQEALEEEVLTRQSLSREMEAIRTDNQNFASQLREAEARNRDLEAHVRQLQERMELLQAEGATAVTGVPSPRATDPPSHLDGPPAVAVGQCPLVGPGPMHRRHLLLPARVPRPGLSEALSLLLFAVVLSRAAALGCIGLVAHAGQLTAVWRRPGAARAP
Procedure, shortened: as §1

panel of 203 kinases [14] = target: T14, panel of 203 kinases (Homo sapiens, UniProt Q13131); conditions: 10 µM, n=1; kinase AMPK-alpha1; read-out: Percent inhibition AMPK-alpha1
T14 construct: purchased DiscoverX (KINOMEscan)
Procedure, shortened: as §1

panel of 203 kinases [15] = target: T15, panel of 203 kinases (Homo sapiens, UniProt Q13557); conditions: 10 µM, n=1; kinase CAMK2D; read-out: Percent inhibition CAMK2D
T15 construct: purchased DiscoverX (KINOMEscan)
Procedure, shortened: as §1

panel of 203 kinases [16] = target: T16, panel of 203 kinases (Homo sapiens, UniProt Q14012); conditions: 10 µM, n=1; kinase CAMK1; read-out: Percent inhibition CAMK1
T16 construct: purchased DiscoverX (KINOMEscan)
Procedure, shortened: as §1

panel of 203 kinases [17] = target: T17, panel of 203 kinases (Homo sapiens, UniProt Q8IU85); conditions: 10 µM, n=1; kinase CAMK1D; read-out: Percent inhibition CAMK1D
T17 construct: purchased DiscoverX (KINOMEscan)
Procedure, shortened: as §1

panel of 203 kinases [18] = target: T18, panel of 203 kinases (Homo sapiens, UniProt Q8N752); conditions: 10 µM, n=1; kinase CSNK1A1L; read-out: Percent inhibition CSNK1A1L
T18 construct: purchased DiscoverX (KINOMEscan)
T18 sequence (Q8N752 1-337): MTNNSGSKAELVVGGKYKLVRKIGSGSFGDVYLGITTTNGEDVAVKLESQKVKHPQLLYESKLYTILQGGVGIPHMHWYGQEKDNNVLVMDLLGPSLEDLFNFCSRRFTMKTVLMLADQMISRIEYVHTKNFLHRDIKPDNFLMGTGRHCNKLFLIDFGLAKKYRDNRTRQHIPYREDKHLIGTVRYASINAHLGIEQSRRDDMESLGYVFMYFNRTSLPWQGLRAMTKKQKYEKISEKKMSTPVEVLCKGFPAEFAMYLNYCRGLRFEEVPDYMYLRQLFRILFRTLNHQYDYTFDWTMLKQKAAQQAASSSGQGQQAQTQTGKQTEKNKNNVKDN
Procedure, shortened: as §1

panel of 203 kinases [19] = target: T19, panel of 203 kinases (Homo sapiens, UniProt Q96RR4); conditions: 10 µM, n=1; kinase CAMKK2; read-out: Percent inhibition CAMKK2
T19 construct: purchased DiscoverX (KINOMEscan)
Procedure, shortened: as §1

panel of 203 kinases [20] = target: T20, panel of 203 kinases (Homo sapiens, UniProt Q9UQM7); conditions: 10 µM, n=1; kinase CAMK2A; read-out: Percent inhibition CAMK2A
T20 construct: purchased DiscoverX (KINOMEscan)
Procedure, shortened: as §1

T20 sequence (Q9UQM7 whole entry): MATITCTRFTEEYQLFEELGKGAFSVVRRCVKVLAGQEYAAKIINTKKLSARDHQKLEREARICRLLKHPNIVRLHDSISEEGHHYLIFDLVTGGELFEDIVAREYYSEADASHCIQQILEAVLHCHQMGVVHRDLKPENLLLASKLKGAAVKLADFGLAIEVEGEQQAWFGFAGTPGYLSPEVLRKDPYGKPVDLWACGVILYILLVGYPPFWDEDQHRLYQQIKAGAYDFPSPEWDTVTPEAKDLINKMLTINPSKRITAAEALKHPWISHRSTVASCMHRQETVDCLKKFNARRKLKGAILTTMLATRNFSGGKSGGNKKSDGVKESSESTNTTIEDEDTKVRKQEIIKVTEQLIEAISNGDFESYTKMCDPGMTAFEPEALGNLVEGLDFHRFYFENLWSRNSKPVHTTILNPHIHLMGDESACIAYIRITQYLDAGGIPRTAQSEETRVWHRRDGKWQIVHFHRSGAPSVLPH
T12 sequence (P54764 20-986): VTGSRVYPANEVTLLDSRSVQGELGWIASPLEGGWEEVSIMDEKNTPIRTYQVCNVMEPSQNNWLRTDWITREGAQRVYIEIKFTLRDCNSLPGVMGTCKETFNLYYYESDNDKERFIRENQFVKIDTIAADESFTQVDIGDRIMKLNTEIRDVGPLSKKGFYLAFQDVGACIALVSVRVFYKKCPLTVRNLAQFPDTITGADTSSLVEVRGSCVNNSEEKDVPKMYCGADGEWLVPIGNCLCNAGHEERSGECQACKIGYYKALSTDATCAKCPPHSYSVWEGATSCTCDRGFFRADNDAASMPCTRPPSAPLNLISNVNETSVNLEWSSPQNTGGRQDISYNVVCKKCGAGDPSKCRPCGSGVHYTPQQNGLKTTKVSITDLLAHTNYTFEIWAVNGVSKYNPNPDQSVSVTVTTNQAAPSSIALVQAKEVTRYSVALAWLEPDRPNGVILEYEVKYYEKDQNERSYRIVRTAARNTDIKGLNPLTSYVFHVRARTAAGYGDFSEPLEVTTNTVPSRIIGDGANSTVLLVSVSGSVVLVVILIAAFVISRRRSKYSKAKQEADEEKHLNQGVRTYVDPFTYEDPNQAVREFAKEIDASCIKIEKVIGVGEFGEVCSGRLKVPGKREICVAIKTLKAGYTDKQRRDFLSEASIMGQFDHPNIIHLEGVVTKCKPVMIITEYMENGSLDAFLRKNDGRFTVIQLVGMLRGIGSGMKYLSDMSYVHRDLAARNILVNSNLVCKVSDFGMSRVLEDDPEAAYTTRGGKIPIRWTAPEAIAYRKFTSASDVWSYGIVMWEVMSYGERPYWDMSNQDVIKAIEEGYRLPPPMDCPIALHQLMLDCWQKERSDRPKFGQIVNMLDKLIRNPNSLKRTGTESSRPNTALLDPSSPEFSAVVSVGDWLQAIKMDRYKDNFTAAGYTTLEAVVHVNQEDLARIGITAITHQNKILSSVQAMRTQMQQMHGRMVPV
T10 sequence (P51451 whole entry): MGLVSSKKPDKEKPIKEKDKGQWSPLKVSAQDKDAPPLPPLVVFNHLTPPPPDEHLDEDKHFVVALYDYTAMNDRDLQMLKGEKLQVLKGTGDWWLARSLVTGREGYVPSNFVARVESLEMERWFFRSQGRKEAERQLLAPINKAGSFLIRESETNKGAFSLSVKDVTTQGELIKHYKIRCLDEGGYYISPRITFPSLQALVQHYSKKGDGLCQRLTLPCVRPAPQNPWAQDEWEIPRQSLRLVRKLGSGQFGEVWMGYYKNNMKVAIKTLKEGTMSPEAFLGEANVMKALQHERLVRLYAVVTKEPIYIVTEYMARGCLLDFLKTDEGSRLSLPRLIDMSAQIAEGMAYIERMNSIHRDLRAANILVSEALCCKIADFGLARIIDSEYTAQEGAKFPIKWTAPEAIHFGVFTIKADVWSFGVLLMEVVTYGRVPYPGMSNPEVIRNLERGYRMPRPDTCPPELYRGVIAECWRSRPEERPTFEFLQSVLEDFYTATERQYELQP
T4 sequence (P22607 23-806): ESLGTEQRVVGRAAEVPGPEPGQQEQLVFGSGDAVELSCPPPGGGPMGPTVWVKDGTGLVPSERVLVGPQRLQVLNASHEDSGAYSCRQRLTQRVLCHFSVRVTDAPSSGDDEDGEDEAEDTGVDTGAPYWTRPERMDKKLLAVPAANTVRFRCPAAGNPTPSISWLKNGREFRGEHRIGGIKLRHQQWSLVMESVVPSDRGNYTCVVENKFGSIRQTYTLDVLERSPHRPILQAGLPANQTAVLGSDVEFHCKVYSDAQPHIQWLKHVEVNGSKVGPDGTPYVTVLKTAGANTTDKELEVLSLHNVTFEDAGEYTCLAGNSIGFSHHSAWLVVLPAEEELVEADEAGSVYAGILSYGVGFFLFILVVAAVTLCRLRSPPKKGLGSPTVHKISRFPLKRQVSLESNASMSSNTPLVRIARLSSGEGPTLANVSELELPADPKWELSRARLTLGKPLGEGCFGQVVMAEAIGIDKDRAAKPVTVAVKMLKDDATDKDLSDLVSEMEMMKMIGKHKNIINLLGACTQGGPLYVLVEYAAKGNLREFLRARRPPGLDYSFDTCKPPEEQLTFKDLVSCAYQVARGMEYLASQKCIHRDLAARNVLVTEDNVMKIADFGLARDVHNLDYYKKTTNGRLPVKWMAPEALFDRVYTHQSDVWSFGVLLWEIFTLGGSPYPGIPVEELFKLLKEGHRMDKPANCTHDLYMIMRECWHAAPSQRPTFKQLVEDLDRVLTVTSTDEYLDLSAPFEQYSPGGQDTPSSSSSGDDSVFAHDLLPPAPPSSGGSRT
T14 sequence (Q13131 whole entry): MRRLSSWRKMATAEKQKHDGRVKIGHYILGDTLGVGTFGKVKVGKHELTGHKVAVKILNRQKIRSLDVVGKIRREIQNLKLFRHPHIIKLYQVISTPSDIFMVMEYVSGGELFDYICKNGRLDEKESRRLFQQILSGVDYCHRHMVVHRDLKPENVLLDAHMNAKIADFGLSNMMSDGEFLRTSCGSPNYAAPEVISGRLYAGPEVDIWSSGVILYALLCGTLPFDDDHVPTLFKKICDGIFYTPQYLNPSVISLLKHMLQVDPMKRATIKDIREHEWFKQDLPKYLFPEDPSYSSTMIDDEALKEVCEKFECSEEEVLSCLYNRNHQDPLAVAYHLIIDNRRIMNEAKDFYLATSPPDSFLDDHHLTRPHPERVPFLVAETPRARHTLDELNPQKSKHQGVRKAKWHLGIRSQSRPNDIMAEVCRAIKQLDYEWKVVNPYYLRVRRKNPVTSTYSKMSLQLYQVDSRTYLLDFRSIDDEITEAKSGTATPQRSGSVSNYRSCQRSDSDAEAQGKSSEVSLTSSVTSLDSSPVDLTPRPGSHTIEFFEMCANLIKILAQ
T3 sequence (P16591 whole entry): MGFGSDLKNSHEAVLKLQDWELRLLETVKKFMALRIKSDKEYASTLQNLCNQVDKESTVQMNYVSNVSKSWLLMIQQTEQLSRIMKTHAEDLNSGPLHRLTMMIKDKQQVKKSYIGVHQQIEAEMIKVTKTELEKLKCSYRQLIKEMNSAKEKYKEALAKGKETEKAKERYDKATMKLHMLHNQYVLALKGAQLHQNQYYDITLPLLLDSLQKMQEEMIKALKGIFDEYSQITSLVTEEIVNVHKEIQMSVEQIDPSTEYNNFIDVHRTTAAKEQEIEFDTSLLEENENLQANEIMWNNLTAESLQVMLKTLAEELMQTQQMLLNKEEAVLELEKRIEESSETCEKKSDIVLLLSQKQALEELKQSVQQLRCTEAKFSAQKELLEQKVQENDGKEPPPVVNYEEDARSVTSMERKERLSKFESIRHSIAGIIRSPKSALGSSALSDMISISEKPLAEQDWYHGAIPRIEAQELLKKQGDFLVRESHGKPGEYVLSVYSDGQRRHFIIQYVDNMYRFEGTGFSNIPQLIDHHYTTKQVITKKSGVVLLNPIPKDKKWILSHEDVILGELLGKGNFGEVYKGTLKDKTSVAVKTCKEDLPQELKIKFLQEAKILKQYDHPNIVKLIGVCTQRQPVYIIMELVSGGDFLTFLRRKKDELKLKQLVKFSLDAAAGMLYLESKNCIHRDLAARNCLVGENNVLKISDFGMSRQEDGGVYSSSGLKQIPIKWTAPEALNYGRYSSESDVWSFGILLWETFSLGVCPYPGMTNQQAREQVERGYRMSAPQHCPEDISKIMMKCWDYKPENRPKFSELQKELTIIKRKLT
T1 sequence (P06239 whole entry): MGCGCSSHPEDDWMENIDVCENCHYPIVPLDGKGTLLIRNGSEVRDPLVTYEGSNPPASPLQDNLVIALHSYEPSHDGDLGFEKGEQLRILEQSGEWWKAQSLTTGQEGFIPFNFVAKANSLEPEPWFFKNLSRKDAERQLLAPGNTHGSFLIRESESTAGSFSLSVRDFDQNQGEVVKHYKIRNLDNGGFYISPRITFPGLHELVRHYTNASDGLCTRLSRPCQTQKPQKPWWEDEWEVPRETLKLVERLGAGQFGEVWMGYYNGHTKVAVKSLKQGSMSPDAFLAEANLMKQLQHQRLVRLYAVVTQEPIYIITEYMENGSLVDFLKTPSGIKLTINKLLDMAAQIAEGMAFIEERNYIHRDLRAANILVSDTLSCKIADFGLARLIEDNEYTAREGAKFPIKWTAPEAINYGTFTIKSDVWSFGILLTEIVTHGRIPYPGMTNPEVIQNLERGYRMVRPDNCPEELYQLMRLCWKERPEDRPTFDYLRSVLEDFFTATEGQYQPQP
T9 sequence (P45983 whole entry): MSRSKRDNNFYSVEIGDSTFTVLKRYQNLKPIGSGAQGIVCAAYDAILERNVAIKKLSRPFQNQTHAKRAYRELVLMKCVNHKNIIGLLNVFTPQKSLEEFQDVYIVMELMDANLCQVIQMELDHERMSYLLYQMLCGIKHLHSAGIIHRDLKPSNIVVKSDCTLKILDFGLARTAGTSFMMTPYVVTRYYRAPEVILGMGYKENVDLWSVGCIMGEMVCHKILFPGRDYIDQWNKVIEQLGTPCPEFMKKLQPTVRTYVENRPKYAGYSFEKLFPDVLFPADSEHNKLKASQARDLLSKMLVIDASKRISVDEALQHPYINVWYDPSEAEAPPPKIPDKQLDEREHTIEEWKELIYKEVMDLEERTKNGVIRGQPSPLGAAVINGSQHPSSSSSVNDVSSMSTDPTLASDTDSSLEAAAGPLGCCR

## c1ccc(COc2cccc(-c3ccnc4[nH]ccc34)c2)cc1 [Compound 9]
Panel of 203 kinases [1]
  inhibition at 10 µM: 0%
Panel of 203 kinases [2]
  inhibition at 10 µM: 0%
Panel of 203 kinases [3]
  inhibition at 10 µM: 0%
Panel of 203 kinases [4]
  inhibition at 10 µM: 0%
Panel of 203 kinases [5]
  inhibition at 10 µM: 0%
Panel of 203 kinases [6]
  inhibition at 10 µM: 0%
Panel of 203 kinases [7]
  inhibition at 10 µM: 0%
Panel of 203 kinases [8]
  inhibition at 10 µM: 0%
Panel of 203 kinases [9]
  inhibition at 10 µM: 0%
Panel of 203 kinases [10]
  inhibition at 10 µM: 0%
Panel of 203 kinases [11]
  inhibition at 10 µM: 0%
Panel of 203 kinases [12]
  inhibition at 10 µM: 0%
Panel of 203 kinases [13]
  inhibition at 10 µM: 0%
Panel of 203 kinases [14]
  inhibition at 10 µM: 0%
Panel of 203 kinases [15]
  inhibition at 10 µM: 0%
Panel of 203 kinases [16]
  inhibition at 10 µM: 0%
Panel of 203 kinases [17]
  inhibition at 10 µM: 0%
Panel of 203 kinases [18]
  inhibition at 10 µM: 0%
Panel of 203 kinases [19]
  inhibition at 10 µM: 0%
Panel of 203 kinases [20]
  inhibition at 10 µM: 0%

## Nc1ncc2c(-c3ccncc3)c[nH]c2n1 [Compound 11]
Panel of 203 kinases [1]
  inhibition at 10 µM: 0%
Panel of 203 kinases [2]
  inhibition at 10 µM: 0%
Panel of 203 kinases [3]
  inhibition at 10 µM: 0%
Panel of 203 kinases [4]
  inhibition at 10 µM: 0%
Panel of 203 kinases [5]
  inhibition at 10 µM: 0%
Panel of 203 kinases [6]
  inhibition at 10 µM: 0%
Panel of 203 kinases [7]
  inhibition at 10 µM: 0%
Panel of 203 kinases [8]
  inhibition at 10 µM: 0%
Panel of 203 kinases [9]
  inhibition at 10 µM: 77.1%
Panel of 203 kinases [10]
  inhibition at 10 µM: 0%
Panel of 203 kinases [11]
  inhibition at 10 µM: 0%
Panel of 203 kinases [12]
  inhibition at 10 µM: 0%
Panel of 203 kinases [13]
  inhibition at 10 µM: 0%
Panel of 203 kinases [14]
  inhibition at 10 µM: 0%
Panel of 203 kinases [15]
  inhibition at 10 µM: 0%
Panel of 203 kinases [16]
  inhibition at 10 µM: 0%
Panel of 203 kinases [17]
  inhibition at 10 µM: 0%
Panel of 203 kinases [18]
  inhibition at 10 µM: 70.7%
Panel of 203 kinases [19]
  inhibition at 10 µM: 0%
Panel of 203 kinases [20]
  inhibition at 10 µM: 77.6%
